Reference: US20140288040A1, “SUBSTITUTED BENZYLAMINE COMPOUNDS, THEIR USE IN MEDICINE, AND IN PARTICULAR THE TREATMENT OF HEPATITIS C VIRUS (HCV) INFECTION” (ASTEX THERAPEUTICS LIMITED, priority 2011, published 2014)
Structures can show the parent of a compound that is named as a salt. Where two headings read alike, the source gives them in different places.

How the values were obtained:
[1] = target: T1, HCV NS3 protease (full length NS34a) (Hepatitis C virus genotype 1b, UniProt P26663); assay: HCV NS3 protease assay (FRET, full length NS34a); type: biochemical; settings: for inhibition at 0.01 µM: read-out: Activity % inhibition @ 0.01 μM
T1 construct: The protease activity of the full length NS34a was measured using a FRET-based assay; made in house
Summary of the method: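 Full-length NS34a incubated with compound and an NS4AB cleavage-site FRET peptide (QXL520 quencher, 5-FAMsp fluorophore) in 50 mM Tris pH8, 20 mM DTT, 1% CHAPS, 10% glycerol, 5% DMSO. Fluorescence followed for 30 minutes at room temperature; IC50 from initial rates of replicate progress curves.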

[2] = test system: HCV subgenomic replicon in Huh-7 cells; assay: Replicon assay, EC50 luciferase readout; type: cell-based, hepatitis C virus (HCV); settings: Hepatitis C virus, Huh-7, 72 h, single value, or second value of a pair x:y
Procedure: The activities of compounds of the invention against HCV in a cellular environment were analysed using a replicon assay as described below.
Thus, Huh-7 cells persistently infected with an HCV-RNA construct (Bartenschlager, R. Hepatitis C replicons: potential role for drug development. Nature Rev. Drug Discov. 1, 911-916 (2002)) comprising: 5′ and 3′ non-translated regions (NTR); the non-structural genes NS3 to NS5b; as well as the G418 drug resistance gene, neomycin, (for selection of cells carrying HCV replicon RNA) fused to the firefly Luciferase reporter gene (pFK13889luc-ubi-neoNS3-3′ET), were used to determine the cell based antiviral activity of compounds using luciferase activity as an indirect readout of HCV RNA load. In this assay […] huh-7 cells persistently infected with the HCV subgenomic replicon construct above were platedwell in a 96 well tissue culture plate. The cells were allowed to attach overnight in DMEM medium supplemented with 10% FBS 1% NEAA, and 250 μgml gentamicin. The following day the medium was replaced with 200 μlwell of fresh medium as described above lacking gentamicin. […] Plates were then incubated at 37° C. in an atmosphere of 5% CO2 and air for 72 h. […] The plate was then read at 535 nm (excitation) and 590 nm (emission) on a SpectraMax Gemini reader (Molecular Devices) to determine the number of viable cells by measuring the conversion of rezasurin (Alamar blue) to resorufin in response to mitochondrial activity. In order to determine the antiviral effect of these compounds EC50 values were determined by measuring the luciferase activity of the cells. Alamar blue solution was removed from the wells and replaced with 100 μlwell of medium along with 100 μlwell of Bright-Glo reagent and incubated at room temperature for 5 minutes before transferring 100 μlwell to a white bottom 96 well plate to read in a luminometer as described in the Bright-Glo Luciferase Assay System protocol (promega).

[3] = protease activity of full length NS34a, FRET peptide substrate, read-out: Activity IC50
[4] = Huh-7 replicon cells, 72 h, read-out: Activity EC50 (μM) (EC50 luciferase readout)
[5] = read-out: Activity EC50 (μM) (EC50 luciferase readout), Huh-7 replicon cells, 72 h
[6] = IC50 values of 10-150 μM against the protease activity of the full length NS34a, or at least 40% inhibition of protease activity at a concentration of 100 μM

T1 sequence (P26663 1658-1711): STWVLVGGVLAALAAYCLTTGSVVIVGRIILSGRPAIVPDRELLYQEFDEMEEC
T1 sequence (P26663 1027-1657): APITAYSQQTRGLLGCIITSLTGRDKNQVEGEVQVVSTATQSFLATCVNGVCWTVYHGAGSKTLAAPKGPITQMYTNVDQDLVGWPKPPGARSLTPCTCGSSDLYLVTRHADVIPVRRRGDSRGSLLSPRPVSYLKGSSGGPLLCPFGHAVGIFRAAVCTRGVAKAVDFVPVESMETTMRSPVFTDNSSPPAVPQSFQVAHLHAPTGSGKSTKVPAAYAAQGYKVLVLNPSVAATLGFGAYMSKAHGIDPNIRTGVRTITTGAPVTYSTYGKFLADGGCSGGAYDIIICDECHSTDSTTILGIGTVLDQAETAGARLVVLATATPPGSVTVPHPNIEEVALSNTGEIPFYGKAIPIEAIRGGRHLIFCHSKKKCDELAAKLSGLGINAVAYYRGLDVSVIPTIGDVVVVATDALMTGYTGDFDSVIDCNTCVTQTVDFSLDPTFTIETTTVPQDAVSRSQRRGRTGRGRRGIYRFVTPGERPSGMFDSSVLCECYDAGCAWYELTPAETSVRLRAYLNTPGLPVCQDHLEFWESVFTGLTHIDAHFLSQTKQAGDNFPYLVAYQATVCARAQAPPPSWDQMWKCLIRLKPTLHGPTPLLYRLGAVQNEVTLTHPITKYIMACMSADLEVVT

Structure (SMILES) | IC50 [1, 3] [µM] | EC50 [2, 4] [µM] | further results
Cc1ccc(CN[C@H]2CC[C@H](N)CC2)c(F)c1Oc1ccccc1 [Example 272, trans-N-(2-Fluoro-4-methyl-3-phenoxy-benzyl)-cyclohexane-1,4-diamine.dihydrochloride] | 0.88 | 5.3 | –
CCC(NCCO)c1ccc(F)c(Oc2ccccc2)c1F (stereo not shown) [Example 45, 2-[1-(2,4-Difluoro-3-phenoxy-phenyl)-propylamino]-ethanol. hydrochloride] | 1.7 | 9.1 | –
CC[C@@H](N[C@@H](C)CC(N)=O)c1ccc(Cl)c(Oc2ccc(CC#N)cc2)c1F [Example 211] | 0.072 | – | EC50 [2, 5]: 0.066 µM
CC[C@H](NCCO)c1ccc(F)c(Oc2ccccc2)c1F [Example 100, 2-[(S)-1-(2,4-Difluoro-3-phenoxy-phenyl)-propylamino]-ethanol.trifluoroacetate] | 1.1 | > 18 | –
CC[C@@H](N[C@@H](C)CC(N)=O)c1ccc(Cl)c(Oc2cccc(CNS(C)(=O)=O)c2)c1F [Example 216] | 0.97 | > 10 | –
CC[C@@H](N)c1ccc(Cl)c(Oc2ccccc2)c1F [Example 78] | 1.2 | 9.6 | –
CC[C@@H](N[C@@H](C)CC(N)=O)c1ccc(Cl)c(Oc2ccc(C#N)cc2)c1F [Example 186] | 0.039 | 0.13 | –
N[C@H](c1ccc(F)c(Oc2ccccc2)c1F)[C@H]1CCOC1 (relative stereo) [Example 61, C-(2,4-Difluoro-3-phenoxy-phenyl)-C-(tetrahydrofuran-3-yl)-methylamine.hydrochloride] | – | > 30 | IC50 [1, 6]: 10 to 150 µM
CCC(NCCC(N)=O)c1ccc(F)c(Oc2ccccc2)c1F (stereo not shown) [Example 71] | 0.95 | > 30 | –
CCC(N)c1ccc(F)c(Oc2ccccc2)c1F (stereo not shown) [Example 3, 1-(2,4-Difluoro-3-phenoxy-phenyl)-propylamine. hydrochloride] | 2.1 | 22 | –
C[C@H](CC(N)=O)N[C@H](CC1CCNCC1)c1ccc(F)c(Oc2ccccc2)c1F [Example 85] | – | 18 | IC50 [1, 6]: 10 to 150 µM
CC[C@@H](N[C@@H](C)CC(=O)NC)c1ccc(Cl)c(Oc2ccccc2)c1F [Example 131A, (S)-3-[(R)-1-(4-Chloro-2-fluoro-3-phenoxy-phenyl)-propylamino]-N-methyl-butyramide.hydrochloride] | 1.2 | > 10 | –
CC[C@@H](N[C@H](C)CC(=O)NCCN)c1ccc(Cl)c(Oc2ccccc2)c1F [Example 223, (R)—N-(2-Amino-ethyl)-3-[(R)-1-(4-chloro-2-fluoro-3-phenoxy-phenyl)-propylamino]-butyramide.dihydrochloride] | – | > 30 | IC50 ([1]; Activity IC50 (μM), protease activity of full length NS34a, FRET peptide substrate): 0.081 µM
CC[C@@H](N[C@@H](C)CC(=O)N[C@H]1CCNC1)c1ccc(Cl)c(Oc2ccccc2)c1F [Example 250] | 0.95 | 1 | –
CC[C@@H](N[C@@H](C)CC(N)=O)c1ccc(Cl)c(Oc2ccc(C)nc2)c1F [Example 313] | 0.15 | > 10 | –
CC[C@H](N[C@@H](C)CC(N)=O)c1ccc(F)c(Oc2ccccc2)c1F [Example 70] | 0.73 | 27 | –
CCC(N[C@H]1CC[C@@H](N)CC1)c1ccc(F)c(Oc2ccccc2)c1F (stereo partly drawn) [Example 6, cis-N-[1-(2,4-Difluoro-3-phenoxy-phenyl)-propyl]-cyclohexane-1,4-diamine dihydrochloride] | – | 0.14 | IC50 [1, 6]: 10 to 150 µM
N[C@H](c1ccc(F)c(Oc2ccccc2)c1F)[C@@H]1CCCNC1 [Example 59B, C-(2,4-Difluoro-3-phenoxy-phenyl)-C-piperidin-3-yl-methylamine. dihydrochloride] | 2.1 | 3 | –
CC[C@@H](N[C@@H](C)CC(=O)NC1COC1)c1ccc(Cl)c(Oc2ccccc2)c1F [Example 222] | 0.37 | > 10 | –
N[C@H]1CC[C@H](NCc2ccc(F)c(Oc3ccccc3)c2Cl)CC1 [Example 290] | 3.4 | 10 | –
CCC(NC1CCC1)c1ccc(F)c(Oc2ccccc2)c1F (stereo not shown) [Example 44] | 4.7 | 9.9 | –

Structure (SMILES) | IC50 [1, 3] [µM] | EC50 [2, 4] [µM] | further results
CC[C@@H](N[C@H](C)CC(N)=O)c1ccc(Cl)c(Oc2ccc(CC#N)cc2)c1F [Example 212] | 0.82 | – | EC50 [2, 5]: > 10 µM
N[C@H](c1ccc(F)c(Oc2ccccc2)c1F)[C@H]1CCCNC1 [Example 60, C-(2,4-Difluoro-3-phenoxy-phenyl)-C-piperidin-3-yl-methylamine.dihydrochloride] | – | 3 | IC50 [1, 6]: 10 to 150 µM
N[C@H]1CC[C@H](NCc2ccc(F)c(Oc3ccccc3)c2F)CC1 [Example 282] | 0.73 | 0.37 | –
CC[C@@H](N[C@@H](C)CC(N)=O)c1ccc(Cl)c(Oc2ccc([N+](=O)[O-])cc2)c1F [Example 201] | 0.2 | > 10 | –
CCC(NC(C)C)c1ccc(F)c(Oc2ccccc2)c1F (stereo not shown) [Example 34] | 4 | 1.2 | –
CC[C@@H](N[C@@H](C)c1cn[nH]c1)c1ccc(Cl)c(Oc2ccccc2)c1F [Example 145A, [(R)-1-(4-Chloro-2-fluoro-3-phenoxy-phenyl)-propyl]-[(S)-1-(1H-pyrazol-4-yl)-ethyl]-amine. dihydrochloride] | 7.4 | 9.5 | –
N[C@H]1CC[C@H](NCc2cccc(Oc3ccccc3)c2)CC1 [Example 280] | 5.3 | 0.4 | –
CC[C@@H](N[C@@H](C)CC(=O)NOC)c1ccc(Cl)c(Oc2ccccc2)c1F [Example 155] | 1.7 | > 10 | –
CC[C@@H](N[C@@H](C)CC(N)=O)c1ccc(Cl)c(Oc2ccc(-c3cnco3)c(C)c2)c1F [Example 317] | 0.45 | 2.7 | –
CC[C@@H](N[C@@H](C)CC(N)=O)c1ccc(Cl)c(Oc2ccc(C(N)=O)nc2)c1F [Example 249] | 0.38 | 4.6 | –
CC[C@@H](N[C@@H](C)CC(N)=O)c1ccc(Cl)c(Oc2ccc(N)c(OC)c2)c1F [Example 255] | 0.23 | 0.012 | –
CC[C@@H](N[C@@H](C)CC(=O)NCCNC)c1ccc(Cl)c(Oc2ccccc2)c1F [Example 241] | – | 0.98 | inhibition at 0.01 µM ([1]; 0.01 μM compound): 47%
CC[C@@H](N[C@@H](C)C(=O)NCCN)c1ccc(Cl)c(Oc2ccccc2)c1F [Example 9, (S)—N-(2-Amino-ethyl)-2-[(R)-1-(4-chloro-2-fluoro-3-phenoxy-phenyl)-propylamino]-propionamide dihydrochloride] | – | 10 | inhibition at 0.01 µM [1]: 40.5%
CC[C@@H](N[C@@H](C)CC(N)=O)c1ccc(Cl)c(Oc2ccc([N+](=O)[O-])c(OC)c2)c1F [Example 253] | 0.41 | 0.13 | –
CC[C@@H](N[C@@H](C)CC(N)=O)c1ccc(Cl)c(Oc2ccc(N)c(C)c2)c1F [Example 127] | 0.11 | 0.014 | –
C[C@@H](CO)N[C@@H](CC1CCNCC1)c1ccc(F)c(Oc2ccccc2)c1F [Example 96] | 6.7 | 0.24 | –
CC[C@@H](N[C@@H](C)CC(=O)NC1CCNCC1)c1ccc(Cl)c(Oc2ccccc2)c1F [Example 264] | 4.6 | 0.6 | –
CCN(Cc1ccc(Cl)c(Oc2ccccc2)c1F)[C@H]1CC[C@H](N)CC1 [Example 273B, trans-N-(4-Chloro-2-fluoro-3-phenoxy-benzyl)-N-ethyl-cyclohexane-1,4-diamine.dihydrochloride] | 2.3 | 0.76 | –
N[C@@H](c1ccc(F)c(Oc2ccccc2)c1F)[C@H]1CCOC1 (relative stereo) [Example 62, C-(2,4-Difluoro-3-phenoxy-phenyl)—C-(tetrahydro-furan-3-yl)-methylamine.hydrochloride] | 7.2 | > 30 | –
C[C@@H](CO)N[C@H](CC1CCNCC1)c1ccc(F)c(Oc2ccccc2)c1F [Example 89] | 3.9 | 1.8 | –
